Data from patent US8653086B2, “Naphthamides as anticancer agents” (Oregon Health & Science University, priority 2008, dated 2014).
Read-outs that look alike come from different tables or passages of the source.

Key:
[1] = tested on: CREB-mediated gene transcription; experiment: CRE firefly luciferase reporter assay in HEK 293 cells; assay type: cell-based; details: forskolin 10 μM, normalized to renilla luciferase
Description: (§1) (A) Inhibitory effect of CREB-mediated gene transcription by compounds i and ii in HEK 293 cells. Cells were transiently transfected with a plasmid encoding firefly luciferase under the control of three iterative copies of CRE (pCRE-Luc). Compound i or ii was added to the transfected cells in triplicate 30 min prior to the addition of forskolin (Fsk, 10 μM). The luciferase activity was measured using Dual Luciferase Reagent (Promega) and normalized to the co-transfected renilla luciferase (pRL-SV40, Promega). (B) Exponentially growing A549 cells in a 6-well plate (1.5×10^5 cells/well) were treated increasing concentrations of compound i or ii in triplicate for 48 h. […] Data were presented as mean±SD.
In this assay, HEK 293 cells were transiently transfected with a luciferase reporter plasmid which expresses firefly luciferase under the control of three copies of CREB-response element (CRE). Additionally, an internal control plasmid constitutively expressing renilla luciferase was co-transfected to normalize transfection efficiency across the wells. The inhibition flirt-fly luciferase transcription seen in HEK 293 cells by compound i was not due to cell death because the firefly luciferase activity was normalized to renilla luciferase activity and the number of live cells after compound treatment was the same for all the different concentrations tested.

A549 cells [2] = experiment: A549 live cell count, trypan blue; assay type: cell-based, human; details: 48 h, live cells counted
Description: as §1
(§2) To investigate whether apoptosis was activated upon treatment, A549 cells were treated with either naphthol AS-E phosphate (i, 10 μM) or naphthol AS-E (ii, 10 μM) for 48 h. The cells were then analyzed by flow cytometry after staining with annexin-V and propidium iodide (PI). In this two-dye binding assay, annexin-V will bind phosphatidylserine exposed on the dying apoptotic cell surface while PI will only stain dead cells whose plasma-membrane integrity is compromised. This assay can discriminate intact cells (annexin^−/PI^−), apoptotic cells (annexin^+/PI^−) and necrotic or late apoptotic cells (annexin^+/PI^+).

A549 cells [3] = experiment: A549 apoptosis, annexin-V/PI flow cytometry and PARP cleavage; assay type: cell-based, human; details: for percentage of cells undergoing apoptosis: 10 μM, 48 h, vehicle 6.3%; for cleavage of poly (ADP-ribose) polymerase (PARP): A549 cells treated with compound
Description: as §2

primary rat neurons = tested on: primary rat neurons
Description: E18 rat neurons were isolated from Sprague-Dawley rats at 18 days after gestation. The isolated neurons were plated into a 6-well plate coated with poly-D-lysine. On day 5 after plating the neurons, different compounds of indicated concentrations were added (in triplicates) and incubated with the neurons for 48 h. Then the neurons were harvested and the number of live neurons was counted with a hemacytometer after staining with trypan blue. Data were presented as mean±SD.
CREB is a pleiotrophic factor involved in many different cellular processes including neuronal survival. The possibility of neuronal cell death might be a concern for CREB inhibitors in the future clinical applications if they could cross the blood brain barrier. Therefore, the toxicity of naphthol AS-E phosphate (i) or its active form, naphthol AS-E (ii), to primary rat neurons was investigated. Isolated E18 rat neurons were treated with increasing concentrations of naphthol AS-E phosphate (i) or naphthol AS-E (ii) for 48 h. […] At the end of the treatment, the neurons were collected and the number of live neurons were counted using trypan blue exclusion assay (FIG. 3).

[4] = Hydrolysis of naphthol AS-E phosphate in tissue culture media (DMEM), HPLC
Description: (A) Representative HPLC chromatograms of aliquots of the incubation mixture containing naphthol AS-E phosphate (i, 500 μM), 1-naphthalenemethanol (1 mM) and DMEM with 10% FBS at different time points. […] 1-Naphthalenemethanol was included as an internal standard. The minor peaks on the chromatograms are components from DMEM, which contains various amino acids, vitamins and carbohydrates. (B) Time-dependent increases of naphthol AS-E during the hydrolysis of naphthol AS-E phosphate. The data were extracted from the experiment presented in (A). The concentration of naphthol AS-E was determined based on the calibration curve shown in (C).
Napthol AS-E phosphate was incubated with tissue culture media (Dulbecco's Modified Eagle Medium, DMEM) containing 10% fetal bovine serum (FBS) at 37° C. along with an internal standard, 1-naphthalenemethanol. The hydrolysis of napthol AS-E phosphate was then monitored by reverse phase HPLC at various time points.

Row | SMILES | inhibition of CREB-mediated gene transcription [1] | A549 cell proliferation (A549 cells [2]) | percentage of cells undergoing apoptosis (A549 cells [3]) | cleavage of poly (ADP-ribose) polymerase (PARP) (A549 cells [3]) | neuronal cell death (primary rat neurons) | hydrolysis of phosphate i to naphthol ii after 25-h incubation ([4]; DMEM with 10% FBS, 37° C.) | period of constant rate of increase of naphthol AS-E ([4]; DMEM with 10% FBS, initial zero-order kinetics) | hydrolysis in tissue culture media without FBS ([4]; DMEM without FBS, 24 h) | neuronal cell death (primary rat neurons; E18 rat neurons, 48 h, naphthols up to 10 μM, CPT positive control)
1 | O=C(Nc1ccc(Cl)cc1)c1cc2ccccc2cc1OP(=O)(O)O [naphthol AS-E phosphate] | strongly inhibited | inhibited A549 cell proliferation | 22.7% | detected | no significant neuronal cell death | complete hydrolysis | > 8.5 h | did not generate any hydrolysis product | 
2 | O=C(Nc1ccc(Cl)cc1)c1cc2ccccc2cc1O [naphthol AS-E] |  | inhibited A549 cell proliferation | 19.8% | detected |  |  |  |  | no significant neuronal cell death
